Literature values, collected in publication PMC7751758, “Repurposing Sigma-1 Receptor Ligands for COVID-19 Therapy?” (Frontiers in Pharmacology, 2020).
Where “and” joins values, the source holds several entries; their conditions need not be identical. Identical values can stand only once. Entries after “also recorded” stand apart in the source; their conditions may differ.

How the values were obtained:
Sigma-1 receptor = conditions: for IC50: read-out: Sigma-1 receptor affinity IC50; for Ki: read-out: Sigma-1 receptor affinity Ki
[1] = tested on: HCV infection of human hepatocarcinoma Huh-7 cells; conditions: absence of cytotoxicity at low micromolar and submicromolar concentrations; ref Gastaminza et al., 2010
HCV infection = conditions: without significantly reducing cell biomass; ref Mingorance et al., 2014
[2] = tested on: HCV-induced cytopathic effect on the engineered cell line n4mBid; conditions: leads of the cell protection screen; ref Chockalingam et al., 2010

Molecule: Cl.Cl.OCCN1CCN(CCC=C2c3ccccc3Sc3ccc(C(F)(F)F)cc32)CC1 (mixture of isomers) [Flupentixol]
- Antiviral activity: Virus (EBOV): active

Molecule: CCN(CC)Cc1cc(Nc2ccnc3cc(Cl)ccc23)ccc1O [Amodiaquine]
- Antiviral activity: Virus (SARS-CoV): in vitro activity
- Antiviral activity: Virus (MERS-CoV): in vitro activity
- IC50 (Sigma-1 receptor): 0.355 µM

Molecule: COc1ccc(CCN2CCC(Nc3nc4ccccc4n3Cc3ccc(F)cc3)CC2)cc1 [Astemizole]
- Antiviral activity: Virus (SARS-CoV): in vitro activity
- Antiviral activity: Virus (MERS-CoV): in vitro activity
- Antiviral activity: Virus (EBOV): active

Molecule: CN1CCCC(n2nc(Cc3ccc(Cl)cc3)c3ccccc3c2=O)CC1 (stereo not drawn) [Azelastine]
- reduction in HCV infection of Huh-7 cells, as compared to the vehicle DMSO control [1]: > 85%
- IC50 (Sigma-1 receptor): 0.274 µM

Molecule: CC(COc1ccccc1Cc1ccccc1)N1CCCCC1 (stereo not drawn) [Benproperine]
- reduction in HCV infection of Huh-7 cells, as compared to the vehicle DMSO control [1]: > 85%
- IC50 (Sigma-1 receptor): 0.019 µM

Molecule: CN1[C@@H]2CC[C@H]1C[C@@H](OC(c1ccccc1)c1ccccc1)C2 [Benztropine]
- reduction of HCV infection (HCV infection): more than one order of magnitude
- cellular toxicity (Ebola virus (EBOV)): < 30%
- viral inhibition (Ebola virus (EBOV)): > 50%
- Antiviral activity: Virus (SARS-CoV): in vitro activity; also recorded: SARS-CoV SARS-CoV-2
- Antiviral activity: Virus (MERS-CoV): in vitro activity
- Antiviral activity: Virus (EBOV): active

Molecule: CN1CCN(c2nc3cc(C(F)(F)F)ccc3n3cccc23)CC1.O=C(O)/C=C\C(=O)O.O=C(O)/C=C\C(=O)O [CGS 12066B]
- reduction in HCV infection of Huh-7 cells, as compared to the vehicle DMSO control [1]: > 85%
- IC50 (Sigma-1 receptor): 1.18 µM

Molecule: COc1ccccc1OCCNCC(O)COc1cccc2[nH]c3ccccc3c12 (stereo not drawn) [Carvedilol]
- reduction in HCV infection of Huh-7 cells, as compared to the vehicle DMSO control [1]: > 85%
- IC50 (Sigma-1 receptor): 1.57 µM

Molecule: CN(C)CCOC(C)(c1ccccc1)c1ccc(Cl)cc1 (stereo not drawn) [Chlorphenoxamine]
- Antiviral activity: Virus (SARS-CoV): in vitro activity
- Antiviral activity: Virus (MERS-CoV): in vitro activity
- IC50 (Sigma-1 receptor): 1.76 µM

Molecule: NC(=NCc1ccc(Cl)cc1)SCCCc1cnc[nH]1 [Clobenpropit]
- reduction in HCV infection of Huh-7 cells, as compared to the vehicle DMSO control [1]: > 85%
- IC50 (Sigma-1 receptor): 1.08 µM

Molecule: CCN(CC)CCOc1ccc(C(=C(Cl)c2ccccc2)c2ccccc2)cc1 [Clomiphene]
- reduction of HCV infection (HCV infection): more than one order of magnitude
- cellular toxicity (Ebola virus (EBOV)): < 30%
- viral inhibition (Ebola virus (EBOV)): > 50%
- Antiviral activity: Virus (EBOV): active

Molecule: CN(C)CCCN1c2ccccc2CCc2ccc(Cl)cc21 [Clomipramine]
- reduction of HCV infection (HCV infection): more than one order of magnitude
- Antiviral activity: Virus (SARS-CoV): in vitro activity; also recorded: SARS-CoV SARS-CoV-2
- Antiviral activity: Virus (MERS-CoV): in vitro activity
- Antiviral activity: Virus (EBOV): active

Molecule: Clc1ccc(C(OCCN2CCCCC2)c2ccccc2)cc1 (stereo not drawn) [Cloperastine]
- IC50 (Sigma-1 receptor): 0.277 µM
- Ki (Sigma-1 receptor): 0.02 µM

Molecule: C[C@@H]1C[C@@H]([C@H](O)CC2CC(=O)NC(=O)C2)C(=O)[C@@H](C)C1 [Cycloheximide]
- Antiviral activity: Virus (SARS-CoV): in vitro activity
- Antiviral activity: Virus (MERS-CoV): in vitro activity
- IC50 (Sigma-1 receptor): 1.03 µM

Molecule: CN1CCC(=C2c3ccccc3C=Cc3ccccc32)CC1 [Cyproheptadine]
- reduction in HCV infection of Huh-7 cells, as compared to the vehicle DMSO control [1]: > 85%

Molecule: CNCCCN1c2ccccc2CCc2ccccc21 [Desipramine]
- reduction of HCV infection (HCV infection): more than one order of magnitude
- IC50 (Sigma-1 receptor): 1.19 µM
- Ki (Sigma-1 receptor): 1.99 µM

Molecule: Clc1ccc2c(c1)CCc1cccnc1C2=C1CCNCC1 [Desloratadine]
- reduction in HCV infection of Huh-7 cells, as compared to the vehicle DMSO control [1]: > 85%

Molecule: CNCCC(Oc1ccc(C(F)(F)F)cc1)c1ccccc1 (stereo not drawn) [Fluoxetine]
- reduction of HCV infection (HCV infection): more than one order of magnitude

Molecule: OCCN1CCN(CCCN2c3ccccc3Sc3ccc(C(F)(F)F)cc32)CC1 [Fluphenazine]
- Antiviral activity: Virus (SARS-CoV): in vitro activity; also recorded: SARS-CoV SARS-CoV-2
- Antiviral activity: Virus (MERS-CoV): in vitro activity
- reduction in HCV infection of Huh-7 cells, as compared to the vehicle DMSO control [1]: > 85%
- Antiviral activity: Virus (EBOV): active

Molecule: O=C1NCN(c2ccccc2)C12CCN(CCCC(c1ccc(F)cc1)c1ccc(F)cc1)CC2 [Fluspirilene]
- Antiviral activity: Virus (SARS-CoV): in vitro activity
- Antiviral activity: Virus (MERS-CoV): in vitro activity
- IC50 (Sigma-1 receptor): 0.38 µM and 0.563 µM
- Ki (Sigma-1 receptor): 0.15 µM

Molecule: OCCOCCN1CCN(C(c2ccccc2)c2ccc(Cl)cc2)CC1 (stereo not drawn) [Hydroxyzine]
- reduction of HCV infection (HCV infection): more than one order of magnitude
- IC50 (Sigma-1 receptor): 0.342 µM
- Ki (Sigma-1 receptor): 0.046 µM

Molecule: CN(C)CCCN1c2ccccc2CCc2ccccc21 [Imipramine]
- reduction of HCV infection (HCV infection): more than one order of magnitude
- IC50 (Sigma-1 receptor): 0.529 µM
- Ki (Sigma-1 receptor): 0.343 µM

Molecule: CNC1CC(c2ccc(Cl)c(Cl)c2)c2ccccc21 (stereo not drawn) [Indatraline]
- reduction in HCV infection of Huh-7 cells, as compared to the vehicle DMSO control [1]: > 85%
- IC50 (Sigma-1 receptor): 0.737 µM

Molecule: CN1CCC(=C2c3ccccc3CC(=O)c3sccc32)CC1 [Ketotifen]
- reduction in HCV infection of Huh-7 cells, as compared to the vehicle DMSO control [1]: > 85%
- IC50 (Sigma-1 receptor): 3.8 µM

Molecule: CN(CCCN1c2ccccc2CCc2ccccc21)CC(=O)c1ccc(Cl)cc1 [Lofepramine]
- reduction in HCV infection of Huh-7 cells, as compared to the vehicle DMSO control [1]: > 85%
- Sigma-1 receptor affinity, inhibition (Sigma-1 receptor; at 10 µM): 100% inh. at 10 µM
- Ki (Sigma-1 receptor): 2.52 µM

Molecule: COc1ccc(CN2CCN(C(c3ccc(F)cc3)c3ccc(F)cc3)CC2)c(OC)c1OC [Lomerizine]
- Antiviral activity: Virus (EBOV): active
- IC50 (Sigma-1 receptor): 0.037 µM

Molecule: CNCCCC12CCC(c3ccccc31)c1ccccc12 [Maprotiline]
- Antiviral activity: Virus (EBOV): active

Molecule: OC(c1cc(C(F)(F)F)nc2c(C(F)(F)F)cccc12)C1CCCCN1 (stereo not drawn) [Mefloquine]
- Antiviral activity: Virus (SARS-CoV): in vitro activity
- Antiviral activity: Virus (MERS-CoV): in vitro activity
- IC50 (Sigma-1 receptor): 2.56 µM

Molecule: CC(=O)c1ccc2c(c1)N(CCCN1CCC(CCO)CC1)c1ccccc1S2 [Piperacetazine]
- Antiviral activity: Virus (EBOV): active
- IC50 (Sigma-1 receptor): 0.823 µM

Molecule: CC(=O)[C@H]1CC[C@H]2[C@@H]3CCC4=CC(=O)CC[C@]4(C)[C@H]3CC[C@]12C [Progesterone]
- IC50 (Sigma-1 receptor): 1.96 µM
- Ki (Sigma-1 receptor): 0.173 to 0.196 µM and 0.26 to 0.338 µM

Molecule: CNCCCC1c2ccccc2C=Cc2ccccc21 [Protriptyline]
- alleviation of HCV-induced cytopathic effect (n4mBid cell viability relative to untreated cells) [2]: increase n4mBid cell viability
- IC50 (Sigma-1 receptor): 0.307 µM

Molecule: CCN(CC)CCCC(C)Nc1c2ccc(Cl)cc2nc2ccc(OC)cc12 (stereo not drawn) [Quinacrine]
- Antiviral activity: Virus (EBOV): active
- IC50 (Sigma-1 receptor): 0.953 µM

Molecule: O=[N+]([O-])c1ccc2nc(N3CCNCC3)ccc2c1 [Quipazine-6N]
- alleviation of HCV-induced cytopathic effect (n4mBid cell viability relative to untreated cells) [2]: increase n4mBid cell viability
- IC50 (Sigma-1 receptor): 1.25 µM

Molecule: O=C(c1ccc(OCCN2CCCCC2)cc1)c1c(-c2ccc(O)cc2)sc2cc(O)ccc12 [Raloxifene]
- reduction of HCV infection (HCV infection): more than one order of magnitude
- alleviation of HCV-induced cytopathic effect (n4mBid cell viability relative to untreated cells) [2]: increase n4mBid cell viability
- IC50 (Sigma-1 receptor): 0.122 µM
- Ki (Sigma-1 receptor): 0.038 µM

Molecule: C[C@@H]1CN(CCCn2c3ccccc3c3ccccc32)C[C@H](C)N1 [Rimcazole, 9-[3-(cis-3,5-Dimethyl-1-piperazinyl)-propyl]carbazole]
- reduction in HCV infection of Huh-7 cells, as compared to the vehicle DMSO control [1]: > 85%

Molecule: Cc1nc2sccn2c(=O)c1CCN1CCC(=C(c2ccc(F)cc2)c2ccc(F)cc2)CC1 [Ritanserin]
- alleviation of HCV-induced cytopathic effect (n4mBid cell viability relative to untreated cells) [2]: increase n4mBid cell viability
- IC50 (Sigma-1 receptor): 0.19 µM

Molecule: Oc1cc2c(cc1O)C(c1ccccc1)CNCC2 (stereo not drawn) [SKF-38393]
- alleviation of HCV-induced cytopathic effect (n4mBid cell viability relative to untreated cells) [2]: increase n4mBid cell viability

Molecule: OCc1cc(C(O)CNCCCCCCOCCCCc2ccccc2)ccc1O (stereo not drawn) [Salmeterol]
- reduction in HCV infection of Huh-7 cells, as compared to the vehicle DMSO control [1]: > 85%
- IC50 (Sigma-1 receptor): 0.151 µM

Molecule: Fc1ccc(-n2cc(CCCCN3CCC4(CC3)OCc3ccccc34)c3ccccc32)cc1 [Siramesine]
- IC50 (Sigma-1 receptor): 0.017 µM

Molecule: CC/C(=C(\c1ccccc1)c1ccc(OCCN(C)C)cc1)c1ccccc1 [Tamoxifen]
- reduction of HCV infection (HCV infection): more than one order of magnitude
- Antiviral activity: Virus (SARS-CoV): in vitro activity; also recorded: SARS-CoV SARS-CoV-2
- Antiviral activity: Virus (MERS-CoV): in vitro activity

Molecule: CC(C)N1CCN(c2ccc(OCC3COC(Cn4cncn4)(c4ccc(Cl)cc4Cl)O3)cc2)CC1 (stereo not drawn) [Terconazole]
- Antiviral activity: Virus (SARS-CoV): in vitro activity; also recorded: SARS-CoV SARS-CoV-2
- Antiviral activity: Virus (MERS-CoV): in vitro activity
- Antiviral activity: Virus (EBOV): active
- IC50 (Sigma-1 receptor): 0.159 µM

Molecule: CN1CCN(CC/C=C2/c3ccccc3Sc3ccc(S(=O)(=O)N(C)C)cc32)CC1 [Thiothixene]
- Antiviral activity: Virus (SARS-CoV): in vitro activity
- Antiviral activity: Virus (MERS-CoV): in vitro activity
- IC50 (Sigma-1 receptor): 0.353 µM

Molecule: CN(C)CCOc1ccc(/C(=C(/CCCl)c2ccccc2)c2ccccc2)cc1 [Toremifene]
- Antiviral activity: Virus (SARS-CoV): in vitro activity; also recorded: SARS-CoV SARS-CoV-2
- Antiviral activity: Virus (MERS-CoV): in vitro activity
- reduction in HCV infection of Huh-7 cells, as compared to the vehicle DMSO control [1]: > 85%
- Antiviral activity: Virus (EBOV): active
- IC50 (Sigma-1 receptor): 0.22 µM

Molecule: CN(C)CCCN1c2ccccc2Sc2ccc(C(F)(F)F)cc21 [Triflupromazine]
- alleviation of HCV-induced cytopathic effect (n4mBid cell viability relative to untreated cells) [2]: increase n4mBid cell viability
- Antiviral activity: Virus (SARS-CoV): in vitro activity
- Antiviral activity: Virus (MERS-CoV): in vitro activity
- IC50 (Sigma-1 receptor): 0.47 µM and 0.605 µM
- Ki (Sigma-1 receptor): 0.154 µM

Molecule: OC(CCN1CCCCC1)(c1ccccc1)C1CC2C=CC1C2 (stereo not drawn) [biperiden]
- alleviation of HCV-induced cytopathic effect (n4mBid cell viability relative to untreated cells) [2]: increase n4mBid cell viability

Molecule: CC(C)(C)[C@]1(O)CCN2C[C@H]3c4ccccc4CCc4cccc(c43)[C@@H]2C1 [butaclamol]
- alleviation of HCV-induced cytopathic effect (n4mBid cell viability relative to untreated cells) [2]: increase n4mBid cell viability

Molecule: Cc1cc2c(s1)Nc1ccccc1N=C2N1CCN(C)CC1 [olanzapine]
- Sig-1R activity (Sigma-1 receptor): no significant Sig-1R activity

Molecule: (±)-Butaclamol
- IC50 (Sigma-1 receptor): 0.343 µM

Molecule: (−)-Butaclamol
- IC50 (Sigma-1 receptor): 0.183 µM
